Measured values reported in PMC6272426, “LC-ESI-MS/MS Analysis and Pharmacokinetics of GP205, an Innovative Potent Macrocyclic Inhibitor of Hepatitis C Virus NS3/4A Protease in Rats” (Molecules, 2015).
Where two headings read alike, the source gives them in different places.

Experiments:
[1] = design: method as in PMID 24900304; settings: comparison value for MK-1220; cited from earlier work
[2] = biological target: NS3 enzyme, genotype 1b HCV (HCV NS3/4A protease) (Hepatitis C virus genotype 1b, UniProt Q9WMX2); test: biochemical
Sequence of NS3 enzyme, genotype 1b HCV (HCV NS3/4A protease) (Q9WMX2 1027-1657): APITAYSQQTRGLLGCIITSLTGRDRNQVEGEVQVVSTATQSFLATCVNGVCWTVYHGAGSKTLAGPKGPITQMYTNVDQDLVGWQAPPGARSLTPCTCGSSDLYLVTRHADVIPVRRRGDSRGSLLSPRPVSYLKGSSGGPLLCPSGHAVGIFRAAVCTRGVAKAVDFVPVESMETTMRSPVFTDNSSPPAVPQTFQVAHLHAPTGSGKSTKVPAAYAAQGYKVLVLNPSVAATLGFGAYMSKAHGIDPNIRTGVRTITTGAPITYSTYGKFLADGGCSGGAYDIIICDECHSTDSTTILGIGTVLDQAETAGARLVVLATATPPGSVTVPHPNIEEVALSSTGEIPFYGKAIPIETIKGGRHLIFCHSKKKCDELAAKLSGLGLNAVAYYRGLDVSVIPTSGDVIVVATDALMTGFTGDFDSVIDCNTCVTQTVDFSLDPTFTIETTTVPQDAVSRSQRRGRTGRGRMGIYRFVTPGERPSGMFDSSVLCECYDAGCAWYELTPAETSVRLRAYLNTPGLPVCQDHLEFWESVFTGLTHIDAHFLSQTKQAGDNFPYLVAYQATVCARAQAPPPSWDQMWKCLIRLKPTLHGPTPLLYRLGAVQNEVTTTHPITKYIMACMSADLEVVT
Sequence of NS3 enzyme, genotype 1b HCV (HCV NS3/4A protease) (Q9WMX2 1658-1711): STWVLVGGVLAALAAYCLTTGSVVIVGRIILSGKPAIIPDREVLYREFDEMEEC

[3] = design: method as in PMID 15732092; settings: rhesus monkeys; cited from earlier work
[4] = assay type: physicochemical; settings: Stock solution
Description: [table] Stock solutions of GP205 were prepared by dissolving an accurately weighed amount of reference standard in methanol to yield a final concentration of 1 mg/mL. The solutions were sonicated for 5 min to ensure complete dissolution. Then the solutions were allowed to equilibrate to room temperature and diluted to volume with methanol. Working standard solutions of GP205 in the concentration range of 20–50,000 ng/mL were prepared from individual aliquots of 1 mg/mL solution using methanol–water (95:5, v/v) as the diluent. The stock standard solution of IS was prepared by dissolving appropriate amount of paclitaxel in methanol at the concentration of 1 mg/mL. A 1 μg/mL IS working solution was obtained by diluting the stock solution of paclitaxel with methanol–water (95:5, v/v). All the solutions were stored at 4 °C and brought to room temperature before use. Calibration standards were prepared daily by spiking 5 μL of the appropriate standard solutions to 45 μL of the blank SD rat plasma. Plasma concentrations were 2, 5, 10, 50, 100, 200, 500, 2000 and 5000 ng/mL for GP205. QC samples, which were used in the validation and during the pharmacokinetics study, were prepared from different sources by independent dilution at three levels (5, 100, 4000 ng/mL) for GP205. QC samples were aliquoted into 1.5 mL non-sterile Eppendorf tubes and stored at −80 °C until analysis.

[5] = Sprague-Dawley, rat
[6] = in vivo; settings: both, Sprague-Dawley, rat, iv, 1 mg/kg
Description: (§1) The method developed above was applied to a pharmacokinetic study of GP205 to SD rats after single oral doses at 2.5, 5 and 10 mg/kg and an intravenous injection dose at 1 mg/kg.
(§2) Twenty four SD rats (12 males and 12 females), weighing 210 ± 8 g (mean ± SD) were fed with certified standard diet and tap water ad libitum. Temperature and humidity were regulated at 21–23 °C and 30%–60%, respectively. A light/dark cycle of 12 h on/12 h off was established. After 1 week of acclimatization, they were randomly divided into 4 groups (3 males and 3 females for each group). After fasted overnight, three groups of them received oral administration of GP205 at three dosages 2.5 mg/kg, 5 mg/kg, 10 mg/kg dissolved in mixed solvent (5% DMSO, 40% PEG-400, 55% physiological saline), respectively. The other group of them received an intravenous injection of GP205 at 1 mg/kg. […] Blood samples (100 μL) were collected into heparinized tubes before administration and at 0.083, 0.17, 0.33, 0.5, 1, 2, 3, 4, 6, 8, 12, 24, 36, 48 h after oral administration or before administration and at 0, 0.083, 0.17, 0.33, 0.5, 1, 2, 3, 4, 6, 8, 12, 24, 36 , 48 h after intravenous administration. The plasma was separated from heparinized blood by centrifugation at 3500 rpm for 10 min and stored at −80 °C prior to analysis.

[7] = both, Sprague-Dawley, rat, in vivo, iv, 1 mg/kg
Description: as §1, §2

[8] = in vivo; settings: Sprague-Dawley, rat
Description: as §1, §2

[9] = Sprague-Dawley, rat, in vivo, po
Description: as §1, §2

[10] = 4 °C for 40 days, nominal 5 ng/mL
[11] = 4 °C for 40 days, nominal 100 ng/mL
[12] = 4 °C for 40 days, nominal 4000 ng/mL
[13] = 25 °C for 24 h, nominal 5 ng/mL
[14] = 25 °C for 24 h, nominal 100 ng/mL
[15] = 25 °C for 24 h, nominal 4000 ng/mL

C=C[C@@H]1C[C@]1(NC(=O)[C@@H]1C[C@@H]2CN1C(=O)[C@H](C1CCCCC1)NC(=O)OCC(C)(C)CCCc1cc3c(nccc3cc1OC)O2)C(=O)NS(=O)(=O)C1CC1 [MK-1220]
t1/2 [1]: about 6 h
IC50 ([2]; NS3 enzyme, genotype 1b HCV, in vitro, read-out: IC50): 0.011 µM

COc1ccc2c(O[C@@H]3C[C@H]4C(=O)N[C@]5(C(=O)O)C[C@H]5/C=C\CCCCC[C@H](NC(=O)OC5CCCC5)C(=O)N4C3)cc(-c3csc(NC(C)C)n3)nc2c1 [BILN-2061]
Cardiotoxicity finding [3]: cardiotoxocity identified in rhesus monkeys

CCC[C@H](NC(=O)[C@@H]1[C@H]2CCC[C@H]2CN1C(=O)[C@@H](NC(=O)[C@@H](NC(=O)c1cnccn1)C1CCCCC1)C(C)(C)C)C(=O)C(=O)NC1CC1 [telaprevir]
IC50 [2]: 0.095 µM

C=C[C@@H]1C[C@]1(NC(=O)[C@@H]1C[C@@H]2CN1C(=O)[C@H](C1CCCCC1)NC(=O)[C@@H](NC(=O)OC(C)(C)C)COC/C=C/c1cc3c(nccc3cc1OC)O2)C(=O)NS(=O)(=O)C1CC1 [GP205, potassium tert-butyl N-[(3R,5S,8S,11S,15E)-8-cyclohexyl-5-{[(1R,2S)-1-[(cyclo-propanesulfonyl)carbamoyl]-2-ethenylcyclopropyl]carbamoyl}-18-methoxy-7,10-dioxo-2,13-dioxa-6,9,23-triazatetracyclo[15.6.2.13,6.020,24]hexacosa-1(23),15,17(25),18,20(24),21-hexaen-11-yl] carbamate monohydrate]
Accuracy [4, 10]: 2.8%
Measured Conc. [4, 10]: 5.14 ng/mL
Accuracy [4, 11]: 0.6%
Measured Conc. [4, 11]: 100.63 ng/mL
Accuracy [4, 12]: −0.2%
Measured Conc. [4, 12]: 3992.75 ng/mL
Accuracy [4, 13]: 1.8%
Measured Conc. [4, 13]: 5.09 ng/mL
Accuracy [4, 14]: 3.3%
Measured Conc. [4, 14]: 103.26 ng/mL
Accuracy [4, 15]: −0.3%
Measured Conc. [4, 15]: 3987.91 ng/mL
Accuracy ([5]; 5 ng/mL): −5.5%
Measured Conc. ([5]; 5 ng/mL): 4.73 ng/mL
Accuracy ([5]; 100 ng/mL): −5.1%
Measured Conc. ([5]; 100 ng/mL): 94.90 ng/mL
Accuracy ([5]; 4000 ng/mL): −1.9%
Measured Conc. ([5]; 4000 ng/mL): 3925.86 ng/mL
Accuracy ([5]; 4 h, 5 ng/mL): −3.3%
Measured Conc. ([5]; 4 h, 5 ng/mL): 4.84 ng/mL
Accuracy ([5]; 4 h, 100 ng/mL): −1.6%
Measured Conc. ([5]; 4 h, 100 ng/mL): 98.39 ng/mL
Accuracy ([5]; 4 h, 4000 ng/mL): −2.9%
Measured Conc. ([5]; 4 h, 4000 ng/mL): 3884.71 ng/mL
Accuracy ([5]; 24 h, 5 ng/mL): −4.2%
Measured Conc. ([5]; 24 h, 5 ng/mL): 4.79 ng/mL
Accuracy ([5]; 24 h, 100 ng/mL): −3.9%
Measured Conc. ([5]; 24 h, 100 ng/mL): 96.13 ng/mL
Accuracy ([5]; 24 h, 4000 ng/mL): −2.4%
Measured Conc. ([5]; 24 h, 4000 ng/mL): 3904.44 ng/mL
Accuracy ([5]; 40 days, 5 ng/mL): −7.7%
Measured Conc. ([5]; 40 days, 5 ng/mL): 4.61 ng/mL
Accuracy ([5]; 40 days, 100 ng/mL): −7.2%
Measured Conc. ([5]; 40 days, 100 ng/mL): 92.84 ng/mL
Accuracy ([5]; 40 days, 4000 ng/mL): −4.7%
Measured Conc. ([5]; 40 days, 4000 ng/mL): 3812.43 ng/mL
AUC [6]: 66600 ng·h/mL
AUC(0-inf) [6]: 75200 ng·h/mL
C0 [6]: 9510 ± 442 ng/mL
MRT [6]: 20.8 ± 3.41 h
clearance [6]: 0.333 mL/min/kg
half-life [6]: 16.3 ± 2.99 h
IC50 [2]: 0.004 µM
VD [7]: 0.31 ± 0.12 L
concentration at 1 h ([8]; po, 2.5 mg/kg): 716 ng/mL
bioavailability ([8]; both): 34%
AUC ([8]; both, po, 2.5 mg/kg): 64300 ng·h/mL
AUC(0-inf) ([8]; both, po, 2.5 mg/kg): 70100 ng·h/mL
Cmax ([8]; both, po, 2.5 mg/kg): 4260 ± 400 ng/mL
MRT ([8]; both, po, 2.5 mg/kg): 19.4 ± 3.22 h
Tmax ([8]; both, po, 2.5 mg/kg): 6.3 ± 0.8 h
half-life ([8]; both, po, 2.5 mg/kg, t1/2): 12.4 ± 1.51 h
AUC ([8]; both, po, 5 mg/kg): 122000 ng·h/mL
AUC(0-inf) ([8]; both, po, 5 mg/kg): 135000 ng·h/mL
Cmax ([8]; both, po, 5 mg/kg): 6780 ± 750 ng/mL
MRT ([8]; both, po, 5 mg/kg): 22.2 ± 2.18 h
Tmax ([8]; both, po, 5 mg/kg): 6.3 ± 1.5 h
half-life ([8]; both, po, 5 mg/kg, t1/2): 13.9 ± 1.48 h
AUC ([8]; both, po, 10 mg/kg): 176000 ng·h/mL
AUC(0-inf) ([8]; both, po, 10 mg/kg): 205000 ng·h/mL
Cmax ([8]; both, po, 10 mg/kg): 9410 ± 583 ng/mL
MRT ([8]; both, po, 10 mg/kg): 25.6 ± 3.48 h
Tmax ([8]; both, po, 10 mg/kg): 6.3 ± 0.8 h
half-life ([8]; both, po, 10 mg/kg, Elimination half time (t1/2)): 12.4 to 17.2 h
half-life ([8]; both, po, 10 mg/kg, t1/2): 17.2 ± 2.73 h
AUC relative to MK-1220 (fold higher) [9]: ~11 fold
Cmax relative to MK-1220 (fold higher) [9]: about 2 fold
Time of maximum plasma drug concentration ([9]; both): about 6 h
